# Read-outs that look alike come from different tables or passages of the source.
# Experiments:
# HIV-1 (RF) = assay: Antiviral drug assay in CEM-SS cells infected with HIV-1 RF (efficacy, tetrazolium reduction); type: cell-based; conditions: for Efficacy % CC (cell control): CEM-SS, HIV-1 (RF), day 6; for EC50: read-out: 50% effective concentration (EC50)
# Method: Antiviral Drug Assay in CEM-SS Cells
# (§1) This assay was used to test the effectiveness of anti-HIV drug monotherapy in the established T-cell line CEM-SS infected with HIV-1RF, HIV-1IIIb, HIV-2ROD, or other cytolytic variants of HIV. The antiviral agent and control (known antiviral drug—AZT) efficacy and cytotoxicity were determined by the metabolic reduction of the tetrazolium salt MTS (available from Promega).
# (§2) The drugs were solubilized in DMSO (dimethyl sulfoxide). Three to ten vials of the antiviral agent and AZT were prepared and maintained at −70° C. CEM-SS cells were in logarithmic growth phase at the time of experimentation. Virus (HIV-1RF) stocks that past the necessary quality controls (killing effect on the type of cells used, limited variability, etc) were thawed and maintained on ice until required for addition.
# (§3) Half-log serial dilutions of the antiviral agent or compound of the invention, H2K1001 (90i), were made in tissue culture media (RPMI 1640 without phenol red, supplemented with 10% heat inactivated fetal bovine serum, 1% L-Glutamine, 1% Pen/Strep and 50 ug/ml gentimycin). Virus, cell, drug and diluent (ethanol) controls were included for these tests. Virus was added after cells and drugs were mixed. Cell, drug, and virus containing cultures were incubated for six (6) days without additional feeding at which time the cultures were evaluated macrosopically and microscopically for cell toxicity, and the tetrazolium salt MTS was added for quantitation by the colorimetric determination of formazan production (optical density).
# (§4) Drug efficacy and cytotoxicity effects were determined six days after infection by the metabolic reduction of the tetrazolium salt XTT to its' formazan by surviving cells and was quantitated by determination of optical density at 450 nm with background subtraction at 650 nm (Tables 1–4).
# (§5) The drug plate analysis reports from this assay are provided below in Tables 1–4. Calculated endpoints (EC50, etc.) were determined using Cho and Cho Median Effect Equation (Daids Virology Manual for HIV Laboratories, Compiled by The Division of Aids, National Institute of Allergy and Infectious Diseases, National Institutes of Health and Collaborating Investigators, Version January 1997).
# [1] = tested on: CEM-SS T-lymphoblastoid cells; assay: Toxicity testing in CEM-SS T-lymphoblastoid cells (tetrazolium reduction); type: cell-based; conditions: for Toxicity % CC (cell control): day 6; for IC50: read-out: 50% inhibitory concentration, IC50 (drug induced toxicity)
# Method: as §1, §2, §3, §4, §5
# HIV-1 (P2) = assay: Antiviral drug assay in PBMC infected with clinical isolate HIV-1 P2 (supernatant p24 ELISA); type: cell-based; conditions: for Efficacy % p24 Reduction: HIV-1 P2, day 7
# Method: (§6) This assay was used to test the effectiveness of anti-HIV drug monotherapy in peripheral blood mononuclear cells (PBMC) infected with clinical isolates of HIV-1. Drug efficacy was determined by the production of supernatant HIV-1 p24. Drug-induced cytotoxicity was determined by the metabolic reduction of tetrazolium salts (MTS; Promega).
# (§7) The antiviral drug or agent of the invention, H2K-1001 (90i), was solubilized. PBMCs, stimulated with PHA (phytohemagglutinin) for three days were employed throughout. Virus stocks (U.S. Clinical isolates) grown in PBMCs only, that past the necessary quality controls (i.e., replicate to high titer in PBMCs and meet the requirements as to genotype and phenotype) were rapidly thawed and maintained on ice until required for infection.
# (§8) Half-log serial dilutions of test drugs and controls were prepared in tissue culture media (RPMI 1640 without phenol red, supplemented with 10% heat inactivated fetal bovine serum, 1% L-Glutamine, 1% Pen/Strep and 50 μg/ml gentamicin). Virus and cell controls were included on each test plate. Virus was added after cells and drugs were mixed. Cell, drug and virus containing cultures were incubated for seven (7) days with an interim feeding at day three or four.
# (§9) Supernatants were sampled at seven days for p24 determination by antigen capture ELISA. Cytotoxicity was measured by the metabolic reduction of the tetrazolium salt according to the manufacturer's (Promega) recommendations.
# (§10) The drug analysis reports from these studies are provided below in Tables 7–10. Efficacy (EC50) and viability (IC50) determinations were made using Cho and Cho Median Effect Equation, as noted above. Efficacy is expressed as the 50% effective concentration (EC50) and drug induced toxicity as the 50% inhibitory concentration (IC50).
# [2] = tested on: peripheral blood mononuclear cells (PBMC); assay: Toxicity testing in PBMC (tetrazolium MTS reduction); type: cell-based
# Method: as §6, §7, §8, §9, §10
# susceptible isolates = assay: AZT in studies of susceptible isolates in PBMCs; type: cell-based, HIV-1; conditions: typical value
# Method: Testing in PBMCs was directed against a primary clinical isolate of HIV-1 P2, which is resistant to a variety of non-nucleoside inhibitors or HIV-1 reverse transcriptase and, in our hands, AZT. Testing AZT (control) against this virus, as expected, produced a relatively high EC50 of 3 uM. Typically AZT produces EC50s of less than 0.01 uM in studies of susceptible isolates in PBMCs.
smiles,measurement,setting,value
"Cc1cn([C@H]2C[C@H](N=[N+]=[N-])[C@@H](CO)O2)c(=O)[nH]c1=O [AZT, reference compound]",Efficacy % CC (cell control),HIV-1 (RF); 0.001 uM,42%
same,Efficacy % CC (cell control),HIV-1 (RF); 0.003 uM,44%
same,Efficacy % CC (cell control),HIV-1 (RF); 0.01 uM,90%
same,Efficacy % CC (cell control),HIV-1 (RF); 0.03 uM,83%
same,Efficacy % CC (cell control),HIV-1 (RF); 0.1 uM,85%
same,Efficacy % CC (cell control),HIV-1 (RF); 0.3 uM,82%
same,Efficacy % CC (cell control),HIV-1 (RF); 1 uM,90%
same,Efficacy % CC (cell control),HIV-1 (RF); 3 uM,82%
same,Efficacy % CC (cell control),HIV-1 (RF); 10 uM,87%
same,EC50,"HIV-1 (RF); CEM-SS cells, HIV-1 RF",~3.5 nM
same,Toxicity % CC (cell control),"[1]; 0.001 uM, CEM-SS",93%
same,Toxicity % CC (cell control),"[1]; 0.003 uM, CEM-SS",100%
same,Toxicity % CC (cell control),"[1]; 0.01 uM, CEM-SS",109%
same,Toxicity % CC (cell control),"[1]; 0.03 uM, CEM-SS",104%
same,Toxicity % CC (cell control),"[1]; 0.1 uM, CEM-SS",102%
same,Toxicity % CC (cell control),"[1]; 0.3 uM, CEM-SS",102%
same,Toxicity % CC (cell control),"[1]; 1 uM, CEM-SS",96%
same,Toxicity % CC (cell control),"[1]; 3 uM, CEM-SS",95%
same,Toxicity % CC (cell control),"[1]; 10 uM, CEM-SS",95%
same,IC50,[1]; CEM-SS cells,> 10000 nM
same,Efficacy % p24 Reduction,HIV-1 (P2); 0.001 uM,12%
same,Efficacy % p24 Reduction,HIV-1 (P2); 0.003 uM,21%
same,Efficacy % p24 Reduction,HIV-1 (P2); 0.01 uM,14%
same,Efficacy % p24 Reduction,HIV-1 (P2); 0.03 uM,10%
same,Efficacy % p24 Reduction,HIV-1 (P2); 0.10 uM,20%
same,Efficacy % p24 Reduction,HIV-1 (P2); 0.32 uM,26%
same,Efficacy % p24 Reduction,HIV-1 (P2); 1 uM,22%
same,Efficacy % p24 Reduction,HIV-1 (P2); 3 uM,51%
same,Efficacy % p24 Reduction,HIV-1 (P2); 10 uM,77%
same,EC50,"HIV-1 (P2); clinical isolate HIV-1 P2, read-out: EC50",3000 nM
same,Toxicity % CC (cell control),[2]; 0.001 uM,100%
same,Toxicity % CC (cell control),[2]; 0.003 uM,111%
same,Toxicity % CC (cell control),[2]; 0.01 uM,100%
same,Toxicity % CC (cell control),[2]; 0.03 uM,99%
same,Toxicity % CC (cell control),[2]; 0.10 uM,101%
same,Toxicity % CC (cell control),[2]; 0.32 uM,99%
same,Toxicity % CC (cell control),[2]; 1 uM,105%
same,Toxicity % CC (cell control),[2]; 3 uM,105%
same,Toxicity % CC (cell control),[2]; 10 uM,104%
same,EC50,susceptible isolates,< 10 nM
"O=C(OCCOCCOC(=O)c1ccccc1)c1ccccc1 [H2K1001 (90i), diethylene glycol dibenzoate]",Efficacy % CC (cell control),HIV-1 (RF); 0.01 ug/ml,42%
same,Efficacy % CC (cell control),HIV-1 (RF); 0.03 ug/ml,80%
same,Efficacy % CC (cell control),HIV-1 (RF); 0.1 ug/ml,87%
same,Efficacy % CC (cell control),HIV-1 (RF); 0.3 ug/ml,83%
same,Efficacy % CC (cell control),HIV-1 (RF); 1 ug/ml,84%
same,Efficacy % CC (cell control),HIV-1 (RF); 3 ug/ml,84%
same,Efficacy % CC (cell control),HIV-1 (RF); 10 ug/ml,82%
same,Efficacy % CC (cell control),HIV-1 (RF); 33 ug/ml,86%
same,Efficacy % CC (cell control),HIV-1 (RF); 100 ug/ml,88%
same,50% effective concentration (EC50),"HIV-1 (RF); CEM-SS cells, HIV-1 RF, listed as 90i",approximately 0.020 ug/ml
same,EC50,"HIV-1 (RF); Human immunodeficiency virus 1, CEM-SS, CEM-SS cells, HIV-1 RF",0.02 µg/mL
same,Toxicity % CC (cell control),"[1]; 0.01 ug/ml, CEM-SS",100%
same,Toxicity % CC (cell control),"[1]; 0.03 ug/ml, CEM-SS",103%
same,Toxicity % CC (cell control),"[1]; 0.1 ug/ml, CEM-SS",104%
same,Toxicity % CC (cell control),"[1]; 0.3 ug/ml, CEM-SS",100%
same,Toxicity % CC (cell control),"[1]; 1 ug/ml, CEM-SS",100%
same,Toxicity % CC (cell control),"[1]; 3 ug/ml, CEM-SS",99%
same,Toxicity % CC (cell control),"[1]; 10 ug/ml, CEM-SS",93%
same,Toxicity % CC (cell control),"[1]; 33 ug/ml, CEM-SS",94%
same,Toxicity % CC (cell control),"[1]; 100 ug/ml, CEM-SS",106%
same,"50% inhibitory concentration, IC50 (drug induced toxicity)","[1]; CEM-SS cells, listed as 90i",> 100 µg/mL
same,IC50,"[1]; Homo sapiens, CEM-SS",> 100 µg/mL
same,Efficacy % p24 Reduction,HIV-1 (P2); 0.01 ug/ml,23%
same,Efficacy % p24 Reduction,HIV-1 (P2); 0.03 ug/ml,25%
same,Efficacy % p24 Reduction,HIV-1 (P2); 0.10 ug/ml,36%
same,Efficacy % p24 Reduction,HIV-1 (P2); 0.33 ug/ml,36%
same,Efficacy % p24 Reduction,HIV-1 (P2); 1 ug/ml,53%
same,Efficacy % p24 Reduction,HIV-1 (P2); 3 ug/ml (3.2 in Table 11),87%
same,Efficacy % p24 Reduction,HIV-1 (P2); 10 ug/ml,95%
same,Efficacy % p24 Reduction,HIV-1 (P2); 32 ug/ml,94%
same,Efficacy % p24 Reduction,HIV-1 (P2); 100 ug/ml,93%
same,EC50,"HIV-1 (P2); Human immunodeficiency virus 1, PBMC, clinical isolate HIV-1 P2, read-out: 50% effective concentration (EC50)",0.8 µg/mL
same,50% effective concentration (EC50),"HIV-1 (P2); clinical isolate HIV-1 P2, listed as 90i",approximately 0.8 ug/ml
same,Toxicity % CC (cell control),[2]; 0.01 ug/ml,94%
same,Toxicity % CC (cell control),[2]; 0.03 ug/ml,103%
same,Toxicity % CC (cell control),[2]; 0.10 ug/ml,91%
same,Toxicity % CC (cell control),[2]; 0.33 ug/ml,94%
same,Toxicity % CC (cell control),[2]; 1 ug/ml,97%
same,Toxicity % CC (cell control),[2]; 3 ug/ml (3.2 in Table 11),94%
same,Toxicity % CC (cell control),[2]; 10 ug/ml,100%
same,Toxicity % CC (cell control),[2]; 32 ug/ml,104%
same,Toxicity % CC (cell control),[2]; 100 ug/ml,111%
same,IC50,"[2]; no unit printed, read-out: IC50 (drug induced toxicity)",> 100 µg/mL
same,IC50,"[2]; read-out: 50% inhibitory concentration, IC50 (drug induced toxicity)",> 100 µg/mL
